Assay results from patent publication US20250255832A1, “SKIN ADHESIVE PATCH FOR NEGATIVE PRESSURE STIMULATION AND MANUFACTURING METHOD THEREFOR” (Research & Business Foundation Sungkyunkwan University, priority 2022, published 2025).
Entries after “also recorded” stand apart in the source; their conditions may differ. Like-named read-outs stand apart in the source and are kept apart here.

What was measured:
[1] = delivery depth by the d-SCC for various drugs with different molecular weights on pig skin; type: in vitro ADME; details: applied in combination with d-SCC
Text: FIG. 11 includes: (a) a graph showing the improvement in delivery depth by the d-SCC for various drugs with different molecular weights on pig skin; and (b) images showing the delivered states of the respective drugs under each condition.

[2] = test system: atopic dermatitis-induced mice; test: transepidermal water loss in atopic dermatitis-induced mice, drugs combined with d-SCC; type: in vivo; details: applied in combination with the d-SCC patch
Text: FIG. 13 includes: (a) images showing the skin recovery progression in atopic dermatitis-induced mice following the combined application of various drugs and the d-SCC; and (b) a graph illustrating transepidermal water loss over time resulting from the combined application of the respective drugs and the d-SCC.

[3] = artificial skin, vs without a patch

Molecule	delivery depth of drug applied together with d-SCC [1]	also measured
Ramoplanin	excellent delivery depth	
Hyaluronic acid	excellent delivery depth	
CC1=C(/C=C/C(C)=C/C=C/C(C)=C/CO)C(C)(C)CCC1 [Retinol]	excellent delivery depth	
Cc1occc(=O)c1O [Maltol]	greatest delivery depth among the tested conditions; also recorded: excellent delivery depth	transepidermal water loss (TEWL) of the skin [2]: recovered to a level closest to that of normal (control) skin
CCN(CC)c1ccc2c(-c3ccccc3C(=O)O)c3ccc(=[N+](CC)CC)cc-3oc2c1.[Cl-] [rhodamine B]		delivery depth improved compared to w/o patch ([3]; 30 minutes after removal of the patch): up to 95%; delivery depth improved compared to w/o patch ([3]; after 30 minutes of patch application): up to 138%
Ovalbumin (protein, UniProt P01012 2-386, looked up, hydrophilic compound) Ovalbumin: GSIGAASMEFCFDVFKELKVHHANENIFYCPIAIMSALAMVYLGAKDSTRTQINKVVRFDKLPGFGDSIEAQCGTSVNVHSSLRDILNQITKPNDVYSFSLASRLYAEERYPILPEYLQCVKELYRGGLEPINFQTAADQARELINSWVESQTNGIIRNVLQPSSVDSQTAMVLVNAIVFKGLWEKAFKDEDTQAMPFRVTEQESKPVQMMYQIGLFRVASMASEKMKILELPFASGTMSMLVLLPDEVSGLEQLESIINFEKLTEWTSSNVMEERKIKVYLPRMKMEEKYNLTSVLMAMGITDVFSSSANLSGISSAESLKISQAVHAAHAEINEAGREVVGSAEAGVDAASVSEEFRADHPFLFCIKHIATNAVLFFGRCVSP	excellent delivery depth	
